Key:
[1] = test system: human B cell lymphoma cell line (RL, CVCL_1660); experiment: Effect on cell growth, B cell lymphoma line RL (live cell count by flow cytometry); format: cell-based; settings: 5 μM or 10 μM, 48 h, RPMI medium, FIG. 6
Method: Cells from the human B cell lymphoma cell line (“RL, CVCL_1660”), have been seeded at a density of 100,000 cells per well, in a 96-well plate in the presence of a concentration of 5 μM or 10 μM of compound, in a volume of 100 μL of RPMI medium. After 48 h of treatment, analyses of the effect on cell growth have been conducted by counting live cells using flow cytometry, as in FIG. 2a.

[2] = test system: human B cell lymphoma cell line (Karpas422, CVCL_1325); experiment: Effect on cell growth, B cell lymphoma line Karpas422 (live cell count by flow cytometry or CellTiterFluor); format: cell-based; settings: 10 μM, 48 h, RPMI and HLPM medium, FIG. 2
Method: Cells from a human B cell lymphoma cell line (“Karpas422, CVCL_1325”) have been seeded at a density of 100,000 cells per well, in a 96-well plate in the presence of a 10 μM concentration of compound, in a volume of 100 μL of medium. After 48 h of treatment, analyses of the effect on cell growth have been conducted, either by counting live cells using flow cytometry (FIG. 2a), or using a biochemical fluorescence detection kit for live cells (FIG. 2b).
In conventional “Gibco RPMI1640/10°/0 SVF” medium, the number of living cells has been determined after double AnnexinV/PI labelling, and analysis using the flow cytometer known as “ATTUNE” (Thermo Fisher Scientific). In “Gibco Human Like Plasma Medium”, the number of live cells has been evaluated using the “CellTiterFluor” kit and after measurement of relative fluorescence units (RFU) according to the supplier's recommendations (Promega). The term DMSO in FIG. 2 corresponds to the control, i.e. identical medium with no added compound.

[3] = test system: human B cell lymphoma cell line (Karpas422, CVCL_1325); experiment: IC50 on cell growth, Karpas422 (CellTiter-Fluor Cell Viability Assay); format: cell-based; settings: KARPAS-422, Karpas422, RPMI 1640 (11 mM glucose) with 10% serum, 48 h
Method: These experiments have been performed using cells from a human B cell lymphoma cell line (“Karpas422, CVCL_1325”) which have been seeded in “RPMI 1640” medium (11 mM glucose) supplemented with 10% serum, in the presence of increasing concentrations of compounds.
After 48 h of treatment, analyses of the effect on cell growth have been conducted, using the “CellTiter-Fluor Cell Viability Assay” (Promega) live cell detection kit, as in FIG. 2b, and following the supplier's instructions.

[4] = test system: human B cell lymphoma line (RL line, CVCL_1660); experiment: Seahorse analysis of oxygen consumption rate (OCR); format: cell-based; settings: for inhibition of OCR: RL cells; for effect on mitochondrial respiration: increasing concentrations 1.2-10 μM, compared to rotenone or IACS-010759
Method: The analyser known as “Seahorse” allows evaluation mitochondrial respiration in real time by measuring Oxygen Consumption Rate (OCR). The experiments have been carried out according to the supplier's recommendations (“Agilent_Seahorse XFe96”). To achieve this, 150,000 cells per well of a human B cell lymphoma line (“RL line, CVCL_1660”) have been seeded in 180 μL of Agilent_Seahorse XF RPMI medium (supplemented with pyruvate and glucose) on a dedicated Agilent_Seahorse 96-well plate, pre-treated with a solution of CellTak according to the supplier's recommendations (Corning). After 30 min incubation in a CO2-free oven, the plate has been analysed with the “Seahorse” using a protocol allowing injection (indicated by arrows in FIG. 1) of increasing amounts of compound to obtain a final cumulative concentration of 1.2 μM, 2.5 μM, 5 μM and 10 μM, followed each time by an OCR reading (in pmol/min) for 10 min. Data normalisation has been carried out by cell counting, using a device known as the “Cytation 1/5 Cell Imaging Multi-Mode reader” (BioTek Instruments, Inc) coupled to the “Seahorse”.
A control is used (DMSO, curve with solid squares) in each figure and corresponds to the medium studied without addition of compound (addition only of the DMSO diluent from the molecule stocks). […] In addition, injection of increasing concentrations of compounds in accordance with the invention induces progressive inhibition of OCR, in a similar manner and in stages for compounds (Ib) and (Ic), and progressively for compound (Ia).

[5] = test system: RH30, CVCL_0041 rhabdomyosarcoma sarcoma line; experiment: Effect on cell growth, paediatric sarcoma line RH30 (CellTiterFluor); format: cell-based, human; settings: 48 h, HLPM medium
Method: (§1) Human tumour cells from two paediatric rhabdomyosarcoma-like sarcoma lines (“RD136, CVCL_1649”, FIG. 5a and “RH3O, CVCL_0041”, FIG. 5b) have been seeded in a 96-well plate in the presence of a concentration of 10 μM of compound, in a volume of 100 μL of “Gibco Human Like Plasma Medium” (Gibco HPLM_Thermo Fisher Scientific). The effect of compounds (Ia), (Ib) and (Ic) has been compared with that of the inhibitors IACS-010759 (IACS) and IM156 (metformin analogue) currently in clinical trials, Rotenone (ROT) and the apoptosis inducer staurosporine (STS). After 48 hours of treatment, the effect on the number of living cells has been evaluated using the “CellTiterFluor” kit from Promega, identically to FIG. 2b.
Human tumour cells from the paediatric rhabdomyosarcoma sarcoma line (“RH30, CVCL_0041”) have been seeded in a 96-well plate in the presence of a 10 μM or 25 μM concentration of compound, in a 100 μL volume of “Gibco Human Like Plasma Medium” (Gibco HPLM_Thermo Fisher Scientific). After 48 h of treatment, the effect of compounds (Ia), (Ie) and (If) on cell growth has been evaluated using the Promega “CellTiterFluor” kit as in FIG. 2b.

[6] = test system: 31 human B and T cell lymphoma lines; experiment: AnnexinV/PI cytometry, % apoptotic cells in 31 lymphoma lines; format: cell-based; settings: compared with IACS-010759, FIG. 3
Text: Analyses of the effect on cell growth of compound (Ia) in accordance with the invention in comparison with compound “[…]” (denoted IACS) not in accordance with the invention have been conducted on a wide series of 31 human B and T cell lymphoma lines, after AnnexinV/PI labelling and analysis with the “ATTUNE” cytometer (Thermo Fisher Scientific). In addition to the number of living cells represented in FIG. 2a, this technology enables the % of cells undergoing apoptosis to be evaluated. The results have been represented in FIG. 3 in the form of a “HeatMap” with a black and white gradient, black representing the highest % of apoptotic cells.

[7] = test system: human tumour cells of a B cell lymphoma line (SUDHL-4, CVCL_0539); experiment: In ovo xenograft model on the chorioallantoic membrane (CAM) of the chicken embryo; format: in vivo
Text: Preclinical evaluation analyses of the anti-tumour efficacy of compound (Ia) have been carried out using the xenograft model on the chorioallantoic membrane (CAM) of the chicken embryo. […] Treatments have been performed on days E11, E13, E15 and E17. At day E18, the upper CAM portions containing tumours have been removed and weighed, and the lower CAM fragments have been used to evaluate the presence of human cells indicative of metastases by RT-gPCR (polymerase chain reaction from an RNA sample). 0.0097 mg/kg Doxorubicin (DOXO) has been used as a positive control for treatment efficacy, compound (Ia) has been used at 3 different doses: 0.05 mg/kg, [2]: 0.15 mg/kg, and [3]: 0.45 mg/kg, and “IACS-010759” has been used at 2 different doses: 0.05 mg/kg, and [2]: 0.45 mg/kg. The negative control (denoted DMSO) represents treatment with the DMSO molecule diluent.

[8] = test system: RD136, CVCL_1649 rhabdomyosarcoma-like sarcoma line; experiment: Effect on cell growth, paediatric sarcoma line RD136 (CellTiterFluor); format: cell-based, human; settings: 10 μM, 48 h, HLPM medium, FIG. 5a
Method: as §1

[9] = 10 μM cumulative concentration, FIG. 1b
[10] = dose 0.15 mg/kg (compound Ia [2])
[11] = dose 0.45 mg/kg (compound Ia [3], IACS [2])

Row | Structure (SMILES) | effect on cell growth (number of live tumour cells) [2] | inhibition of OCR [4, 9] | effect on mitochondrial respiration [4] | effect on cell growth (number of living cells) ([5]; 10 μM or 25 μM, FIG. 7) | effect on cell growth (number of living cells) [8] | effect on cell growth (number of living cells) ([5]; 10 μM, FIG. 5b) | further results
1 | c1cnc(NCCCCCCCCCCCCNC2=NCCN2)nc1 [Compound Ia, N′-(4,5-dihydro-1H-imidazol-2-yl)-N-pyrimidin-2-yl-dodecane-1,12-diamine] | inhibit cell growth | Virtually complete inhibition of OCR | moderate and progressive effect | inhibit cell growth |  |  | effect on cell growth [1]: inhibitory effect on cell growth; IC50 [3]: 1.5 µM; toxicity (% of apoptotic cells) [6]: increased with respect to that of “IACS-010759” for a sub-group of 8 lines; reduction in primary tumour volume [7, 10]: 73%; reduction in the relative number of metastases [7, 10]: 70%; reduction in primary tumour volume [7, 11]: 70%; reduction in the relative number of metastases [7, 11]: 72%; reduction in primary tumour volume ([7]; dose [1] 0.05 mg/kg): 48%; reduction in the relative number of metastases ([7]; dose [1] 0.05 mg/kg): 45%
2 | Cl.Cl.c1cnc(N2CCN(CCCCCCCCCCCCN3CCN(c4ncccn4)CC3)CC2)nc1 [Compound Ib, 2-[4-[12-(4-pyrimidin-2-ylpiperazin-1-yl)dodecyl]piperazin-1-yl]pyrimidine dihydrochloride] | inhibit cell growth | Virtually complete inhibition of OCR | moderate and progressive effect |  | inhibits cell growth | inhibits cell growth | 
3 | Cl.Cl.c1ccc(N2CCN(CCCCCCCCCCCCN3CCN(c4ccccn4)CC3)CC2)nc1 [Compound Ic, 1-(2-pyridyl)-4-[12-[4-(2-pyridyl)piperazin-1-yl]dodecyl]piperazine dihydrochloride] | inhibit cell growth | Virtually complete inhibition of OCR | moderate and progressive effect |  | inhibits cell growth | inhibits cell growth | 
4 | c1cnc(NCCCCCCCCCCCCNc2ncccn2)nc1 [Compound Id] |  |  |  |  | inhibits cell growth | inhibits cell growth | effect on cell growth [1]: inhibitory effect on cell growth
5 | c1cnc(N2CCN(CCCCCCCN3CCN(c4ncccn4)CC3)CC2)nc1 [Compound Ie] |  |  |  | inhibit cell growth |  |  | 
6 | Cl.Cl.c1ccc(N2CCN(CCCCCCCN3CCN(c4ccccn4)CC3)CC2)nc1 [Compound If] |  |  |  | inhibit cell growth |  |  | 
7 | C=C(C)[C@H]1Cc2c(ccc3c2O[C@@H]2COc4cc(OC)c(OC)cc4[C@@H]2C3=O)O1 [Rotenone, reference compound] |  |  |  |  |  |  | inhibition of OCR ([4]; 1.2 μM, FIG. 1a): instantaneous and almost complete inhibition of OCR
8 | COc1cccc2c1C(=O)c1c(O)c3c(c(O)c1C2=O)C[C@@](O)(C(=O)CO)C[C@@H]3O[C@H]1C[C@H](N)[C@H](O)[C@H](C)O1 [doxorubicin, Doxorubicin, reference compound] |  |  |  |  |  |  | regression in the number of metastases ([7]; 0.0097 mg/kg, lower CAM, RT-qPCR): 99%; reduction in primary tumour volume ([7]; 0.0097 mg/kg, treatments E11, E13, E15, E17, read at E18): 90%
9 | N/C(=N/c1cccc2ccccc12)SCCCCCCS/C(N)=N\c1cccc2ccccc12 [reference compound] |  |  |  |  |  |  | IC50 [3]: 15.1 µM
